{
  "source": "paper PMC8296708",
  "about": "“The pan HDAC inhibitor Givinostat improves muscle function and histological parameters in two Duchenne muscular dystrophy murine models expressing different haplotypes of the LTBP4 gene” (Skeletal Muscle, 2021)",
  "key": {"D2.B10 mice": {"system": "D2.B10 mice", "assay": "Histopathological evaluation of severity of myodystrophy in D2.B10 mice", "format": "in vivo, mouse (D2.B10-Dmd^mdx/J)", "conditions": "T8 and T16", "description": "(§1) In these experiments, the histopathological evaluation of muscle inflammatory infiltrate, adipose tissue deposition, regeneration, and degeneration of the muscular tissue was also performed. The severity of myodystrophy in the different muscles (TA, GAS and DIA) was quantified through a weighted histopathological method that considered some parameters scored by severity and extension of the injury: muscle degeneration/necrosis, regeneration, inflammatory infiltrate, interstitial reaction, and adipose tissue deposition. Each parameter was classified by severity (mild = 1, moderate = 2, and severe = 3) and extension (focal = 1, multifocal = 2, and diffuse = 3). The individual severity score was calculated for each animal and an average score per group was calculated."}, "mdx mice [1]": {"system": "mdx mice", "assay": "Histopathological evaluation of severity of myodystrophy in mdx mice", "format": "in vivo, mouse (C57BL/10ScSn-Dmd^mdx/J)", "conditions": "T16", "description": "as §1"}, "mdx mice [2]": {"system": "mdx mice", "assay": "Treadmill run to exhaustion test in mdx mice", "format": "in vivo, mouse (C57BL/10ScSn-Dmd^mdx/J)", "conditions": "for Distance run: 37.5 mg/kg p.o.", "excerpt": "For the efficacy studies, C57BL/10 J (Stock No: 000665) wild type (wt) and C57BL/10ScSn-Dmd^mdx/J (Stock No: 001801) 7–8-week-old male mice, DBA/2J wt (Stock No: 000671), and D2.B10-Dmd^mdx/J (Stock No: 013141) 6–7-week-old male mice were purchased from The Jackson Laboratories (Bar Harbor, Maine, USA). After 5 days of acclimatization in the animal facility, mice were randomized into different treatment groups based on their BW. C57BL/10J wt mice were assigned to the naive wt group (healthy mice that received no treatment, but were subjected to functional tests), whereas mdx mice were assigned to the following groups (9 mice/group; 4–5 mice/cage): naive mdx (mice that received no treatment, but were subjected to functional tests), vehicle (0.5% methylcellulose, p.o.), and Givinostat (0.1, 0.3, 1, 5, 10, 25, and 37.5 mg/kg, p.o.). DBA/2J mice were assigned to the naive wt group (healthy mice that received no treatment, but were subjected to functional tests), whereas D2.B10 mice were assigned to the following groups (12–13 mice/group; 4–5 mice/gage): vehicle (filtered tap water, p.o.), Givinostat (1, 5, 10, and 37.5 mg/kg, p.o.), prednisone 1 mg/kg, and Deflazacort 1 mg/kg (i.p.).\nIn the efficacy studies, Givinostat powder (ITF2357) was suspended in 0.5% methylcellulose (Sigma-Aldrich) and administered p.o. (by gavage) at the doses of 0.1, 0.3, 1, 5, 10, 25, and 37.5 mg/kg qdx5x15weeks (administration volume per mouse: 10 mL/kg) in mdx mice (see Additional Figure 1A). Vehicle-treated mdx mice received 0.5% methylcellulose suspension. Givinostat suspension was stored at + 4 °C, and it was freshly prepared every 7 days. Probably due to the impairment of their tongue and masticatory muscles, the oral gavage procedure turned out to be difficult to perform, and chronic treatment of D2.B10 mice by this route was considered to bear a high risk of damaging the esophagus. For this reason, Givinostat was administered in the drinking water. Givinostat was dissolved in filtered tap water and was administered in drinking water (throughout 24 h) for 105 days at the dose of 1, 5, 10, and 37.5 mg/kg/day, according to a daily estimate of water consumption of 4 ml/mouse/day. Water consumption was weekly monitored throughout the entire duration of the study weighing the bottle of each cage (maximum 4 mice per cage). Prednisone and Deflazacort powder (Sigma-Aldrich) was dissolved in 2% DMSO (Sigma-Aldrich) and diluted in sterile saline on injection days. Both drugs were administered weekly (for 15 weeks) by i.p. injection at the dose of 1 mg/kg in a volume of 10 mL/kg. Givinostat and steroid treatments started on days 7 and 9 of the experimental plan, respectively (see Additional Figure 1B). All mice were monitored daily and tolerability was evaluated on the basis of BW and clinical signs.\nRun to exhaustion performance of mdx and D2.B10 mice was evaluated every 14 or 21 days, respectively, using a treadmill apparatus (Ugo Basile SRL, Italy). The exhaustion protocol consisted in an initially horizontal running at 5 m/min for 5 min after which the speed was increased 1 m/min every minute until exhaustion (the procedure was compliant with the standard operating procedures of TREAT–NMD Neuromuscular Network). The test was concluded when mice remained for more than 10 s on the shocker plate (for both C57BL/10 J and mdx mice) or when D2.B10 mice reached a maximum number of shocks. Due to the excessive stress caused to D2.B10 mice by this functional test, a maximum number of 600 and 150 shocks was set. These experimental conditions were also applied to the DBA/2J wt healthy mice.\nAfter taking baseline readings for behavioral assays (FNmax and distance run by the animals), mice were re-randomized based on these two parameters, also considering the previous randomization performed on their BW.\nThe grip strength and run to exhaustion tests were performed during the light-cycle phase, in the early hours of the morning (8:00–11:30 am). […]"}},
  "data": [
    {"smiles": "CCN(CC)Cc1ccc2cc(COC(=O)Nc3ccc(C(=O)NO)cc3)ccc2c1", "note": "[Givinostat]", "values": [
      {"measurement": "Histological evaluation of inflammatory infiltrate, adipose tissue deposition, regeneration, degeneration", "setting": "D2.B10 mice", "value": "not significantly different among the treatment groups"},
      {"measurement": "Histological evaluation of inflammatory infiltrate, adipose tissue deposition, regeneration, degeneration", "setting": "mdx mice [1]", "value": "not significantly different among the treatment groups"},
      {"measurement": "Distance run", "setting": "mdx mice [2]; day 31", "value": "785 ± 97", "unit": "m"},
      {"measurement": "Distance run", "setting": "mdx mice [2]; day 44", "value": "693 ± 103", "unit": "m"},
      {"measurement": "Distance run", "setting": "mdx mice [2]; day 94", "value": "410 ± 40", "unit": "m"},
      {"measurement": "Lowest effective dose on time to exhaustion", "setting": "mdx mice [2]; day 94", "value": 0.3, "unit": "mg/kg"},
      {"measurement": "Time to exhaustion", "setting": "mdx mice [2]; highest dose (37.5 mg/kg), day 94, vs vehicle", "value": "significantly prolonged the time to exhaustion"},
      {"measurement": "Distance run, significance of doses lower than 37.5 mg/kg", "setting": "mdx mice [2]; lower doses, trend of dose-response", "value": "did not reach significance"}
    ]}
  ]
}
